According to patent US20230234943A1, “TREX1 INHIBITORS AND USES THEREOF” (Tempest Therapeutics, Inc., priority 2020, published 2023):

Target: T1, Human TREX1 enzyme (amino acids 1-242) (Homo sapiens, UniProt Q9NSU2)
T1 construct: Human TREX1 enzyme (amino acids 1-242)
T1 sequence (Q9NSU2 1-242): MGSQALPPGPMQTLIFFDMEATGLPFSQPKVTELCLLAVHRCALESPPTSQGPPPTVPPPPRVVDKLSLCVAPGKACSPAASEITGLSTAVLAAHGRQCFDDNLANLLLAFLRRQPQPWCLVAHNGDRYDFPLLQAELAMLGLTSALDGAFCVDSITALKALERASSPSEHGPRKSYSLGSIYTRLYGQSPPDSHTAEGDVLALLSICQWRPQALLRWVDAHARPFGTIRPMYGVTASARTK
Experiment: Human TREX1 enzymatic assay with dsDNA native oligonucleotide (Picogreen fluorescence)
Format: biochemical
Conditions: 2 mM dithiothreitol in assay buffer; 50 nM dsDNA oligonucleotide; 30 min preincubation at 25° C.; read-out: TREX1/Human + DTT IC50 AVG
Outline: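 Remaining dsDNA quantified by Picogreen fluorescence after EDTA quench, with no-enzyme and DMSO wells as controls. Reactions used 50 nM annealed oligonucleotide for 5–15 min at 25 °C, after a 30 min compound–enzyme preincubation (0.8–0.16 nM TREX1; 2% DMSO; pH 7.7 Tris, 5 mM MgCl2).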

Structure (SMILES)	IC50 [nM]
COc1cc(-c2nc3ccc(C(=O)NC4CCNCC4)cc3n2C2(C)COC2)c(F)c(O)c1O [Example 255, 2-(2-fluoro-3,4-dihydroxy-5-methoxyphenyl)-1-(3-methyloxetan-3-yl)-N-(piperidin-4-yl)-1H-benzo[d]imidazole-6-carboxamide]	100 to 1000
COc1cc(-c2nc3ccc(C(=O)NC4CCN(C)C4)cc3n2C2(C)COC2)c(F)c(O)c1O (stereo not shown) [Example 257, 2-(2-fluoro-3,4-dihydroxy-5-methoxyphenyl)-1-(3-methyloxetan-3-yl)-N-(1-methylpyrrolidin-3-yl)-1H-benzo[d]imidazole-6-carboxamide]	100 to 1000
COc1cc(-c2nc3ccc(C(=O)NC4CCN(C)CC4)cc3n2C2(C)COC2)c(F)c(O)c1O [Example 260, 2-(2-fluoro-3,4-dihydroxy-5-methoxyphenyl)-1-(3-methyloxetan-3-yl)-N-(1-methylpiperidin-4-yl)-1H-1,3-benzodiazole-6-carboxamide]	100 to 1000
COc1cc(-c2nc3ccc(C(=O)NC4CCNC4)cc3n2C2(C)COC2)c(F)c(O)c1O (stereo not shown) [Example 261, 2-(2-fluoro-3,4-dihydroxy-5-methoxyphenyl)-1-(3-methyloxetan-3-yl)-N-(pyrrolidin-3-yl)-1H-benzo[d]imidazole-6-carboxamide]	100 to 1000
CCNC(=O)c1ccc2nc(-c3cc(OC)c(O)c(O)c3F)n(C3(C)COC3)c2c1 [Example 262, N-ethyl-2-(2-fluoro-3,4-dihydroxy-5-methoxyphenyl)-1-(3-methyloxetan-3-yl)-1H-benzo[d]imidazole-6-carboxamide]	≤ 100
COc1cc(-c2nc3ccc(C(=O)NCC4(F)CC4)cc3n2C2(C)COC2)c(F)c(O)c1O [Example 263, 2-(2-fluoro-3,4-dihydroxy-5-methoxyphenyl)-N-[(1-fluorocyclopropyl)methyl]-1-(3-methyloxetan-3-yl)-1H-1,3-benzodiazole-6-carboxamide.]	≤ 100
CCNC(=O)c1ccc2nc(-c3cc(OC)c(O)c(O)c3F)n(C34CC(C3)C4)c2c1 [Example 264, 1-(bicyclo[1.1.1]pentan-1-yl)-N-ethyl-2-(2-fluoro-3,4-dihydroxy-5-methoxyphenyl)-1H-benzo[d]imidazole-6-carboxamide]	≤ 100
COc1cc(-c2nc3ccc(-c4cnn(C)c4)cc3n2C2(C)COC2)c(F)c(O)c1O [Example 265, 3-fluoro-6-methoxy-4-(6-(1-methyl-1H-pyrazol-4-yl)-1-(3-methyloxetan-3-yl)-1H-benzo[d]imidazol-2-yl)benzene-1,2-diol]	≤ 100
COc1cc(-c2nc3ccc(-c4ccnn4C)cc3n2C2(C)COC2)c(F)c(O)c1O [Example 266, 3-fluoro-6-methoxy-4-(6-(1-methyl-1H-pyrazol-5-yl)-1-(3-methyloxetan-3-yl)-1H-benzo[d]imidazol-2-yl)benzene-1,2-diol]	1000 to 10000
COc1cc(-c2nc3ccc(-c4ncccn4)cc3n2C2(C)COC2)c(F)c(O)c1O [Example 267, 3-fluoro-6-methoxy-4-(1-(3-methyloxetan-3-yl)-6-(pyrimidin-2-yl)-1H-benzo[d]imidazol-2-yl)benzene-1,2-diol]	≤ 100
COc1cc(-c2nc3cc(C4CCC4)ccc3[nH]2)cc(O)c1O [Example 268, 5-(5-cyclobutyl-1H-benzo[d]imidazol-2-yl)-3-methoxybenzene-1,2-diol]	> 100000
COc1cc(-c2nc3ccc(-c4ccc(F)cn4)cc3n2C2(C)COC2)c(F)c(O)c1O [Example 269, 3-fluoro-4-(6-(5-fluoropyridin-2-yl)-1-(3-methyloxetan-3-yl)-1H-benzo[d]imidazol-2-yl)-6-methoxybenzene-1,2-diol]	≤ 100
COc1cc(-c2nc3ccc(-c4ncc(F)cn4)cc3n2C2(C)COC2)c(F)c(O)c1O [Example 270, 3-fluoro-4-(6-(5-fluoropyrimidin-2-yl)-1-(3-methyloxetan-3-yl)-1H-benzo[d]imidazol-2-yl)-6-methoxybenzene-1,2-diol]	≤ 100
COc1cc(-c2nc3cc(N4CCOC4=O)ccc3n2C2(C)COC2)c(F)c(O)c1O [Example 271, 3-(2-(2-fluoro-3,4-dihydroxy-5-methoxyphenyl)-1-(3-methyloxetan-3-yl)-1H-benzo[d]imidazol-5-yl)oxazolidin-2-one]	≤ 100
COc1cc(-c2nc3cc(N4CCC4=O)ccc3n2C2(C)COC2)c(F)c(O)c1O [Example 272, 1-(2-(2-fluoro-3,4-dihydroxy-5-methoxyphenyl)-1-(3-methyloxetan-3-yl)-1H-benzo[d]imidazol-5-yl)azetidin-2-one]	100 to 1000
COc1cc(-c2nc3cc(N4CCN(C)CC4=O)ccc3n2C2(C)COC2)c(F)c(O)c1O [Example 273, 1-(2-(2-fluoro-3,4-dihydroxy-5-methoxyphenyl)-1-(3-methyloxetan-3-yl)-1H-benzo[d]imidazol-5-yl)-4-methylpiperazin-2-one]	100 to 1000
COc1cc(-c2nc3cc(N4CCN(C5CC5)CC4)ccc3[nH]2)cc(O)c1O [Example 274, 5-(5-(4-cyclopropylpiperazin-1-yl)-1H-benzo[d]imidazol-2-yl)-3-methoxybenzene-1,2-diol]	> 100000
COc1cc(-c2nc3cc(N4CCOCC4=O)ccc3n2C2(C)COC2)c(F)c(O)c1O [Example 275, 4-(2-(2-fluoro-3,4-dihydroxy-5-methoxyphenyl)-1-(3-methyloxetan-3-yl)-1H-benzo[d]imidazol-5-yl)morpholin-3-one]	100 to 1000
COc1cc(-c2nc3ccc(N4CCOC4=O)cc3n2C2(C)COC2)c(F)c(O)c1O [Example 276, 3-(2-(2-fluoro-3,4-dihydroxy-5-methoxyphenyl)-1-(3-methyloxetan-3-yl)-1H-benzo[d]imidazol-6-yl)oxazolidin-2-one]	≤ 100
COc1cc(-c2nc3ccc(N4CCOCC4=O)cc3n2C2(C)COC2)c(F)c(O)c1O [Example 277, 4-(2-(2-fluoro-3,4-dihydroxy-5-methoxyphenyl)-1-(3-methyloxetan-3-yl)-1H-benzo[d]imidazol-6-yl)morpholin-3-one]	1000 to 10000

Second part, the molecule after the results:

IC50 [nM]	Structure (SMILES)
≤ 100	COc1cc(-c2nc3ccc(C(=O)Nc4cnoc4)cc3n2C2(C)COC2)c(F)c(O)c1O [Example 247, 2-(2-fluoro-3,4-dihydroxy-5-methoxyphenyl)-N-(isoxazol-4-yl)-1-(3-methyloxetan-3-yl)-1H-benzo[d]imidazole-6-carboxamide]
≤ 100	COc1cc(-c2nc3ccc(C(=O)Nc4ccncc4)cc3n2C2(C)COC2)c(F)c(O)c1O [Example 248, 2-(2-fluoro-3,4-dihydroxy-5-methoxyphenyl)-1-(3-methyloxetan-3-yl)-N-(pyridin-4-yl)-1H-1,3-benzodiazole-6-carboxamide]
≤ 100	COc1cc(-c2nc3ccc(C(=O)NC45CC(C4)C5)cc3n2C2(C)COC2)c(F)c(O)c1O [Example 249, N-(bicyclo[1.1.1]pentan-1-yl)-2-(2-fluoro-3,4-dihydroxy-5-methoxyphenyl)-1-(3-methyloxetan-3-yl)-1H-benzo[d]imidazole-6-carboxamide]
≤ 100	COc1cc(-c2nc3ccc(C(=O)Nc4cccnc4)cc3n2C2(C)COC2)c(F)c(O)c1O [Example 250, 2-(2-fluoro-3,4-dihydroxy-5-methoxyphenyl)-1-(3-methyloxetan-3-yl)-N-(pyridin-3-yl)-1H-1,3-benzodiazole-6-carboxamide]
≤ 100	COc1cc(-c2nc3ccc(C(=O)NCC(F)F)cc3n2C2(C)COC2)c(F)c(O)c1O [Example 251, N-(2,2-difluoroethyl)-2-(2-fluoro-3,4-dihydroxy-5-methoxyphenyl)-1-(3-methyloxetan-3-yl)-1H-1,3-benzodiazole-6-carboxamide]
≤ 100	COc1cc(-c2nc3ccc(C(=O)NC(C)C)cc3n2C2(C)COC2)c(F)c(O)c1O [Example 252, 2-(2-fluoro-3,4-dihydroxy-5-methoxyphenyl)-N-isopropyl-1-(3-methyloxetan-3-yl)-1H-benzo[d]imidazole-6-carboxamide]
≤ 100	COc1cc(-c2nc3ccc(C(=O)NC4CC4)cc3n2C2(C)COC2)c(F)c(O)c1O [Example 253, N-cyclopropyl-2-(2-fluoro-3,4-dihydroxy-5-methoxyphenyl)-1-(3-methyloxetan-3-yl)-1H-benzo[d]imidazole-6-carboxamide]
≤ 100	COc1cc(-c2nc3ccc(C(=O)NC4COC4)cc3n2C2(C)COC2)c(F)c(O)c1O [Example 254, 2-(2-fluoro-3,4-dihydroxy-5-methoxyphenyl)-1-(3-methyloxetan-3-yl)-N-(oxetan-3-yl)-1H-benzo[d]imidazole-6-carboxamide]
≤ 100	COc1cc(-c2nc3ccc(C(=O)NC4CCC(F)(F)CC4)cc3n2C2(C)COC2)c(F)c(O)c1O [Example 256, N-(4,4-difluorocyclohexyl)-2-(2-fluoro-3,4-dihydroxy-5-methoxyphenyl)-1-(3-methyloxetan-3-yl)-1H-benzo[d]imidazole-6-carboxamide]
≤ 100	COc1cc(-c2nc3ccc(C(=O)Nc4ccon4)cc3n2C2(C)COC2)c(F)c(O)c1O [Example 258, 2-(2-fluoro-3,4-dihydroxy-5-methoxyphenyl)-1-(3-methyloxetan-3-yl)-N-(1,2-oxazol-3-yl)-1H-1,3-benzodiazole-6-carboxamide]
≤ 100	COc1cc(-c2nc3ccc(C(=O)NC4CNC4)cc3n2C2(C)COC2)c(F)c(O)c1O [Example 259, N-(azetidin-3-yl)-2-(2-fluoro-3,4-dihydroxy-5-methoxyphenyl)-1-(3-methyloxetan-3-yl)-1H-1,3-benzodiazole-6-carboxamide]
